Source: PubChem BioAssay AID330 (DTP/NCI, 2004)
“And” between values parts separate entries of the source, which are not always exact repeats. Equal values may be shown once. Toxic doses and inconclusive results are not listed.

Test system: P388 leukemia ip, CD2F1 mice, survival T/C
Test: NCI In Vivo Anticancer Drug Screen. Data for tumor model P388 Leukemia (intraperitoneal) in CD2F1 (CDF1) mice
Settings: endpoint: median survival time, higher = longer survival
Summary of the method: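 Mice carrying the transplanted tumor received test compound or vehicle. Survival was recorded in each group, and the value is the treated-group measurement divided by that of the vehicle-treated control group.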

[1] = dose: 50.0 mg/kg/injection, schedule: Q01DX009 (ip), vehicle: saline with Tween-80
[2] = dose: 100.0 mg/kg/injection, schedule: Q01DX009 (ip), vehicle: saline with Tween-80
[3] = dose: 200.0 mg/kg/injection, schedule: Q01DX009 (ip), vehicle: saline with Tween-80
[4] = dose: 100.0 mg/kg/injection, schedule: Q01DX005 (ip), vehicle: saline with Tween-80
[5] = dose: 200.0 mg/kg/injection, schedule: Q01DX005 (ip), vehicle: saline with Tween-80
[6] = dose: 50.0 mg/kg/injection, schedule: Q01DX005 (ip), vehicle: saline with Tween-80

CCOC(=O)C1OC1(C)c1ccccc1 (stereo not given)
T/C [1]: 102 % of control
T/C [2]: 100 % of control
T/C [3]: 107 % of control

CCOC(=O)CNCCN(CC)CC
T/C (dose: 100.0 mg/kg/injection, schedule: Q01DX001 (ip), vehicle: saline with Tween-80): 109 % of control
T/C (dose: 200.0 mg/kg/injection, schedule: Q01DX001 (ip), vehicle: saline with Tween-80): 95 % of control
T/C (dose: 400.0 mg/kg/injection, schedule: Q01DX001 (ip), vehicle: saline with Tween-80): 100 % of control

O=C1NC(=Nc2ccccc2)N(c2ccccc2)C1=Nc1ccccc1
T/C [1]: 88 % of control
T/C [2]: 91 % of control
T/C [3]: 86 % of control

CN(O)C(=O)C(C)(C)C
T/C [4]: 99 % of control
T/C [5]: 103 % of control
T/C (dose: 400.0 mg/kg/injection, schedule: Q01DX005 (ip), vehicle: saline with Tween-80): 103 % of control

Cc1cccc(N=NC2Sc3nc4ccccc4n3C2=O)c1 (stereo not given)
T/C (dose: 60.0 mg/kg/injection, schedule: Q01DX005 (ip), vehicle: Klucel (hydroxypropylcellulose) (HPC)): 89 % of control
T/C (dose: 120.0 mg/kg/injection, schedule: Q01DX005 (ip), vehicle: Klucel (hydroxypropylcellulose) (HPC)): 91 % of control

c1ccc(CSCCSCc2ccccn2)nc1
T/C (dose: 50.0 mg/kg/injection, schedule: Q01DX005 (ip), vehicle: Klucel (hydroxypropylcellulose) (HPC)): 95 % of control
T/C (dose: 100.0 mg/kg/injection, schedule: Q01DX005 (ip), vehicle: Klucel (hydroxypropylcellulose) (HPC)): 109 % of control
T/C (dose: 200.0 mg/kg/injection, schedule: Q01DX005 (ip), vehicle: Klucel (hydroxypropylcellulose) (HPC)): 103 % of control

CCCc1c(OC)c(OC)c2c(c1C(C)=O)OCO2
T/C [6]: 100 % of control
T/C [4]: 100 % of control
T/C [5]: 104 % of control

[CH3][Sn]([CH3])([CH3])[Cl]
T/C (dose: 0.19 mg/kg/injection, schedule: Q01DX009 (ip), vehicle: saline): 100 % of control
T/C (dose: 0.39 mg/kg/injection, schedule: Q01DX009 (ip), vehicle: saline): 97 % of control
T/C (dose: 0.78 mg/kg/injection, schedule: Q01DX009 (ip), vehicle: saline): 101 % of control

COc1cc2c(c(OC)c1OC)-c1ccc(OC)c(=O)cc1[C@@H](NC(C)=O)CC2
T/C (dose: 0.02 mg/kg/injection, schedule: Q01DX009 (ip), vehicle: saline): 117 % of control
T/C (dose: 0.06 mg/kg/injection, schedule: Q01DX009 (ip), vehicle: saline): 119 % of control
T/C (dose: 0.08 mg/kg/injection, schedule: Q01DX009 (ip), vehicle: saline): 150 % of control
T/C (dose: 0.13 mg/kg/injection, schedule: Q01DX005 (ip), vehicle: saline): 120 % of control
T/C (dose: 0.16 mg/kg/injection, schedule: Q01DX009 (ip), vehicle: saline): 156 % of control
T/C (dose: 0.32 mg/kg/injection, schedule: Q01DX009 (ip), vehicle: saline): 186 % of control
T/C (dose: 0.37 mg/kg/injection, schedule: Q01DX010 (ip), vehicle: saline): 168 % of control
T/C (dose: 0.4 mg/kg/injection, schedule: Q01DX009 (ip), vehicle: water): 176 % of control
T/C (dose: 0.5 mg/kg/injection, schedule: Q01DX005 (ip), vehicle: saline): 169 % of control
T/C (dose: 0.64 mg/kg/injection, schedule: Q01DX009 (ip), vehicle: saline): 225 % of control
T/C (dose: 0.75 mg/kg/injection, schedule: Q01DX010 (ip), vehicle: saline): 159 % of control
T/C (dose: 1.0 mg/kg/injection, schedule: Q01DX005 (ip), vehicle: saline): 160 % of control and 197 % of control and 205 % of control
T/C (dose: 1.25 mg/kg/injection, schedule: Q01DX009 (ip), vehicle: saline): 100 % of control (2×) and 281 % of control
T/C (dose: 2.0 mg/kg/injection, schedule: Q01DX005 (ip), vehicle: saline): 175 % of control

O=C(CN1C(=O)c2cccc3c(Br)ccc(c23)C1=O)c1ccc(Cl)cc1
T/C [6]: 92 % of control
T/C [4]: 92 % of control
T/C [5]: 90 % of control

C1=C(c2ccccc2)SC(N2CCCCC2)S1 (stereo not given)
T/C (dose: 12.5 mg/kg/injection, schedule: Q01DX009 (ip), vehicle: distilled water + Tween-80): 99 % of control
T/C (dose: 25.0 mg/kg/injection, schedule: Q01DX009 (ip), vehicle: distilled water + Tween-80): 99 % of control
T/C (dose: 50.0 mg/kg/injection, schedule: Q01DX009 (ip), vehicle: distilled water + Tween-80): 96 % of control
T/C (dose: 100.0 mg/kg/injection, schedule: Q01DX009 (ip), vehicle: distilled water + Tween-80): 104 % of control
T/C (dose: 200.0 mg/kg/injection, schedule: Q01DX009 (ip), vehicle: distilled water + Tween-80): 112 % of control
